# Data reported in PubChem BioAssay AID2060493 (Molecular Pharmacology Branch, DTP, NCI, 2025).
# Tested on: 616215-338-R-J1-PDC tumor spheroids, viability
# Test: Anticancer human tumor 616215-338-R-J1-PDC patient-derived colon adenocarcinoma cell line growth inhibition [GQUAD]
# Conditions: spheroids with HUVEC and MSC; for IC50: curve of first compound; for viability, T/C: stronger effect = lower value
# Excerpt: DNA G-quadruplex Stabilizer Agents in Combinations in Complex Spheroids
# A high-throughput screen of multi-cell type tumor spheroids was designed to identify active combinations of DNA G-quadruplex stabilizer agents and targeted small molecules. Complex spheroids include a stromal component modeled by human endothelial cells (HUVEC) and fibroblasts modeled by human mesenchymal stem cells (MSCs). The concentration ranges selected for each drug and investigational agent were based upon clinically achievable concentrations if the clinical Cmax of the agent was known.
# Compounds. The drugs and investigational agents: pidnarulex (CX-5461; NSC782164), APTO-253 (NSC789042), BRACO-19 (NSC847499), peposertib (NSC802822), ceralasertib (NSC780249), elimusertib (NSC800525), camonsertib (NSC841442), AZD-1390 (NSC803789), olaparib (NSC753686), talazoparib (NSC767125), ART-558 (NSC835418), sotorasib (NSC818433), MRTX-1133 (NSC836407), SN-38 (NSC673596), topotecan (NSC609699), etoposide (NSC141540), doxorubicin (NSC123127), gemcitabine (NSC613327), 5-fluorouracil (NSC19893), paclitaxel (NSC125973), vemurafenib (NSC761431), panobinostat (NSC761190), R-306465 (JNJ-16241199; NSC773264), adavosertib (NSC754352), TP-3654 (NSC805149), carboplatin (NSC241240), KSQ-4279 (NSC840948), and staurosporine (NSC755774) were obtained from the National Cancer Institute (NCI) Developmental Therapeutics Program Chemical Repository (34). The FDA-approved anticancer drug set is available from the NCI Developmental Therapeutics Program. […] The stock solutions were prepared in dimethyl sulfoxide (DMSO, Sigma-Aldrich, St. Louis, MO, cat. D2650) at 800-fold the tested concentration and stored at -70 degrees C prior to their use. All drugs and investigational agents were tested over a range starting from a high concentration at or near the clinical Cmax and decreasing in half-log increments. If the clinical Cmax for an agent had not been determined, the highest concentration tested was 10 microM.
# 2.3 Cell Culture. All cells were maintained in an incubator at 37 degrees C and 5% CO2 with 95% humidity. The PDC lines were cultured according to standard operating procedures established by the NCI PDMR. All PDCs were thawed and cultured in Matrigel-coated flasks prepared with a working solution of 1X Ham's F-12 nutrient mix, without supplementation (Invitrogen, cat. 11765054), 100 U/mL penicillin-streptomycin (Invitrogen, cat. 15140122), and 2.5% Matrigel (Corning Inc., cat. 354248) for the first three passages. The 857933-349-R-J2-PDC line was cultured in 6C/Colon 1B media, which includes advanced DMEM/F-12 (Thermo Fisher Scientific, cat. 12634028), 10 mM HEPES (Thermo Fisher Scientific, cat. 15630080), 1X GlutaMAX supplement (Thermo Fisher Scientific, cat. 35050061), 0.1 mg/mL primocin (InvivoGen, cat. ant-pm-2), 10% defined fetal bovine serum, heat inactivated (HyClone Laboratories Inc., cat. SH30070.03HI), 50% L-WRN conditioned media (ATCC, cat. CRL-3276), 1.25 mM N-Acetyl-L-cysteine (Sigma-Aldrich, cat. A9165), 10 mM nicotinamide (Sigma-Aldrich, cat. N0636), 1X B-27 supplement (Thermo Fisher Scientific, cat. 17504044), 1X N-2 supplement (Thermo Fisher Scientific, cat. 17502048), 10 microM Y-27632 dihydrochloride (Tocris Bioscience, cat. 1254), and 50 ng/mL human EGF recombinant protein (Thermo Fisher Scientific, cat. PHG0311). The 485176-168-R4-J1-PDC line was cultured in Panc media, which includes all 6C/Colon 1B media components plus 100 ng/mL human FGF-10 (Thermo Fisher Scientific, cat. 100-26), 500 nM SB-431542 (Selleckchem, cat. S1067), and gastrin (Tocris, cat. 3006).
# […]
# [1] = second compound 0.0316 µM, first compound 0.0316 µM
# [2] = second compound 0.0316 µM, first compound 0.1 µM
# [3] = second compound 0.0316 µM, first compound 0.316 µM
# [4] = second compound 0.0316 µM, first compound 1 µM
# [5] = second compound 0.0316 µM, first compound 3.16 µM
# [6] = second compound 0.0316 µM, first compound 10 µM
# [7] = second compound 0.1 µM, first compound 0.0316 µM
# [8] = second compound 0.1 µM, first compound 0.1 µM
# [9] = second compound 0.1 µM, first compound 0.316 µM
# [10] = second compound 0.1 µM, first compound 1 µM
# [11] = second compound 0.1 µM, first compound 3.16 µM
# [12] = second compound 0.1 µM, first compound 10 µM
# [13] = second compound 0.316 µM, first compound 0.0316 µM
# [14] = second compound 0.316 µM, first compound 0.1 µM
# [15] = second compound 0.316 µM, first compound 0.316 µM
# [16] = second compound 0.316 µM, first compound 1 µM
# [17] = second compound 0.316 µM, first compound 3.16 µM
# [18] = second compound 0.316 µM, first compound 10 µM
# [19] = second compound 1 µM, first compound 0.0316 µM
# [20] = second compound 1 µM, first compound 0.1 µM
# [21] = second compound 1 µM, first compound 0.316 µM
# [22] = second compound 1 µM, first compound 1 µM
# [23] = second compound 1 µM, first compound 3.16 µM
# [24] = second compound 1 µM, first compound 10 µM
# [25] = second compound 3.16 µM, first compound 0.0316 µM
# [26] = second compound 3.16 µM, first compound 0.1 µM
# [27] = second compound 3.16 µM, first compound 0.316 µM
# [28] = second compound 3.16 µM, first compound 1 µM
# [29] = second compound 3.16 µM, first compound 3.16 µM
# [30] = second compound 3.16 µM, first compound 10 µM
# [31] = second compound 10 µM, first compound 0.0316 µM
# [32] = second compound 10 µM, first compound 0.1 µM
# [33] = second compound 10 µM, first compound 0.316 µM
# [34] = second compound 10 µM, first compound 1 µM
# [35] = second compound 10 µM, first compound 3.16 µM
# [36] = second compound 10 µM, first compound 10 µM
# 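Further: spheroids exposed to agents for 7 days before readout.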
# 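Wherever viability, T/C is given: percent viability relative to DMSO vehicle control wells taken as 100%.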
compound,measurement,setting,value
COc1cccc2c1C(=O)c1c(O)c3c(c(O)c1C2=O)CC(O)(C(=O)CO)CC3OC1CC(N)C(O)C(C)O1 (centres undefined) + CN(C)c1ccc(Nc2c3ccc(NC(=O)CCN4CCCC4)cc3nc3cc(NC(=O)CCN4CCCC4)ccc23)cc1,IC50,second compound 0.0316 µM,467 nM
same,IC50,second compound 0.1 µM,511 nM
same,IC50,second compound 0.316 µM,483 nM
same,IC50,second compound 1 µM,469 nM
same,IC50,second compound 3.16 µM,511 nM
same,IC50,second compound 10 µM,348 nM
same,"viability, T/C",[1],101%
same,"viability, T/C",[2],88%
same,"viability, T/C",[3],51.7%
same,"viability, T/C",[4],36.2%
same,"viability, T/C",[5],17.7%
same,"viability, T/C",[6],1.14%
same,"viability, T/C",[7],101%
same,"viability, T/C",[8],92.3%
same,"viability, T/C",[9],47.3%
same,"viability, T/C",[10],41.3%
same,"viability, T/C",[11],20.1%
same,"viability, T/C",[12],0.23%
same,"viability, T/C",[13],105%
same,"viability, T/C",[14],90.8%
same,"viability, T/C",[15],49.3%
same,"viability, T/C",[16],38%
same,"viability, T/C",[17],20.1%
same,"viability, T/C",[18],0.36%
same,"viability, T/C",[19],102%
same,"viability, T/C",[20],77.8%
same,"viability, T/C",[21],53.3%
same,"viability, T/C",[22],36%
same,"viability, T/C",[23],19.9%
same,"viability, T/C",[24],1.11%
same,"viability, T/C",[25],97.6%
same,"viability, T/C",[26],87.2%
same,"viability, T/C",[27],46.3%
same,"viability, T/C",[28],45.4%
same,"viability, T/C",[29],19.6%
same,"viability, T/C",[30],3.39%
same,"viability, T/C",[31],101%
same,"viability, T/C",[32],78%
same,"viability, T/C",[33],48.9%
same,"viability, T/C",[34],30.5%
same,"viability, T/C",[35],20.5%
same,"viability, T/C",[36],2.68%
O=C(NO)c1cnc(N2CCN(S(=O)(=O)c3ccc4ccccc4c3)CC2)nc1 + CN(C)c1ccc(Nc2c3ccc(NC(=O)CCN4CCCC4)cc3nc3cc(NC(=O)CCN4CCCC4)ccc23)cc1,IC50,second compound 0.0316 µM,324 nM
same,IC50,second compound 0.1 µM,322 nM
same,IC50,second compound 0.316 µM,255 nM
same,IC50,second compound 1 µM,312 nM
same,IC50,second compound 3.16 µM,293 nM
same,IC50,second compound 10 µM,220 nM
same,"viability, T/C",[1],104%
same,"viability, T/C",[2],97.5%
same,"viability, T/C",[3],51.4%
same,"viability, T/C",[4],1.08%
same,"viability, T/C",[5],0.1%
same,"viability, T/C",[6],0.1%
same,"viability, T/C",[7],105%
same,"viability, T/C",[8],107%
same,"viability, T/C",[9],50.8%
same,"viability, T/C",[10],0.65%
same,"viability, T/C",[11],0.04%
same,"viability, T/C",[12],0.07%
same,"viability, T/C",[13],99.6%
same,"viability, T/C",[14],103%
same,"viability, T/C",[15],38.2%
same,"viability, T/C",[16],0.54%
same,"viability, T/C",[17],0.02%
same,"viability, T/C",[18],0.06%
same,"viability, T/C",[19],96.5%
same,"viability, T/C",[20],98.1%
same,"viability, T/C",[21],49.5%
same,"viability, T/C",[22],0.3%
same,"viability, T/C",[23],0.03%
same,"viability, T/C",[24],0.07%
same,"viability, T/C",[25],89.9%
same,"viability, T/C",[26],93.7%
same,"viability, T/C",[27],47%
same,"viability, T/C",[28],0.25%
same,"viability, T/C",[29],0.07%
same,"viability, T/C",[30],0.1%
same,"viability, T/C",[31],101%
same,"viability, T/C",[32],80.5%
same,"viability, T/C",[33],37.7%
same,"viability, T/C",[34],0.24%
same,"viability, T/C",[35],0.16%
same,"viability, T/C",[36],0.17%
